Among the data in publication PMC11434749, “In Vitro Interaction of Binuclear Copper Complexes with Liver Drug-Metabolizing Cytochromes P450” (Pharmaceuticals, 2024) are IC50 values, retold here.

Assay type in all cases: in vitro ADME
One data set concerns the target T1, CYP1A2 (Homo sapiens, UniProt P05177).
T1 construct: Pooled human liver microsomes were obtained from Biopredic (Rennes, France); tissue Biopredic (Rennes, France); host or cells: pooled human liver microsomes, seventeen donors
T1 sequence (P05177 1-516): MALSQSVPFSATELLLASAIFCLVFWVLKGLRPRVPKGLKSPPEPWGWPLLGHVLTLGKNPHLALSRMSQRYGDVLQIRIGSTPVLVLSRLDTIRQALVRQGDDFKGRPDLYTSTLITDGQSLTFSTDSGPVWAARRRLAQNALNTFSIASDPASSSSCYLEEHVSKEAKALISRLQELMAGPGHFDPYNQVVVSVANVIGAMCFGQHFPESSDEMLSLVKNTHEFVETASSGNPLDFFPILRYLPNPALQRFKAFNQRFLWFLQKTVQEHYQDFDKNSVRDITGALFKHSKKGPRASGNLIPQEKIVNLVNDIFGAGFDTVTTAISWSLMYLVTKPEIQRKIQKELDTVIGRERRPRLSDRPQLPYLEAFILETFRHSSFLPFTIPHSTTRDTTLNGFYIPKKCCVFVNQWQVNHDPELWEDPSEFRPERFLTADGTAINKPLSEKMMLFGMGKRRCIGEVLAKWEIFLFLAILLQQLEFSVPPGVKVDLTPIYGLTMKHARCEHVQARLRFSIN
Briefly: Inhibition of CYP1A2 activity (7-ethoxyresorufin O-deethylation) in human liver microsomes. The note with it: HLM, 7-ethoxyresorufin 1.3 µmol·L^−1, preincubation 30 min at 37 °C, Mean ± S.D. On the procedure:
(§1) The following enzyme assays were performed to determine the activities of specific CYP enzymes: CYP1A2, 7-ethoxyresorufin O-deethylation; CYP2A6, coumarin 7-hydroxylation; CYP2B6, 7-ethoxy-4-(trifluoromethyl) coumarin (EFC) O-deethylation; CYP2C8 paclitaxel 6α-hydroxylation; CYP2C9, diclofenac 4′-hydroxylation; CYP2C19, diazepam N-desmethylation; CYP2D6, bufuralol 1′-hydroxylation; CYP2E1, chlorzoxazone 6-hydroxylation; and CYP3A4/5, testosterone 6β-hydroxylation. […]
(§2) For the determination of metabolites formed from specific substrates, a Prominence LC-20A HPLC system (Shimadzu, Kyoto, Japan) with UV detection or fluorescence detection was used (see Table 2). […]
(§3) Initially, for each enzyme assay, a preliminary experiment was carried out to determine Km and Vmax to obtain the appropriate concentration of the specific substrates for the inhibition experiments (the substrate concentration was chosen in the range corresponding to the value of the Km for each particular reaction). Data were analyzed using the Sigma plot software, as mentioned above, with spectral studies. […] In all cases, the inhibition of individual CYP activities was evaluated by plotting the respective remaining activity against the inhibitor concentration.
On the technique in general: Liver microsomes are a subcellular fraction often used to study metabolism.

A further data set has as its target T2, CYP2A6 (Homo sapiens, UniProt P11509).
T2 construct: Pooled human liver microsomes were obtained from Biopredic (Rennes, France); tissue Biopredic (Rennes, France); host or cells: pooled human liver microsomes, seventeen donors
T2 sequence (P11509 1-494): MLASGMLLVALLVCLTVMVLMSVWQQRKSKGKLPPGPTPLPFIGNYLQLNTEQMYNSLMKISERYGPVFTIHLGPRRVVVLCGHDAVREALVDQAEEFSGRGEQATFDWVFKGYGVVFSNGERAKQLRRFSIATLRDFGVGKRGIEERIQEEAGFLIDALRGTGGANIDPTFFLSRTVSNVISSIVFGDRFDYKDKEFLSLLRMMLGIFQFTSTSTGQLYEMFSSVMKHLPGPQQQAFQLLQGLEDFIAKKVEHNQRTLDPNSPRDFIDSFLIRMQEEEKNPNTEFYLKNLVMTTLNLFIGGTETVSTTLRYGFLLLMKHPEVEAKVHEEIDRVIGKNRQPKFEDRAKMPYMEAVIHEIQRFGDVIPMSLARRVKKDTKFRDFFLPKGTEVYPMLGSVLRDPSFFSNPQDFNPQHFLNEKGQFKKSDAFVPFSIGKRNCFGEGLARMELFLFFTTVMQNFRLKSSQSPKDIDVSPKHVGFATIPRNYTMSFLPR
The data set can be described thus: Inhibition of CYP2A6 activity (coumarin 7-hydroxylation) in human liver microsomes. The settings on record: HLM, coumarin 15 µmol·L^−1, preincubation 30 min at 37 °C, Mean ± S.D. As for the experimental part: as §1, §2, §3

The target of another data set is T3, CYP2B6 (Homo sapiens, UniProt P20813).
T3 construct: Pooled human liver microsomes were obtained from Biopredic (Rennes, France); tissue Biopredic (Rennes, France); host or cells: pooled human liver microsomes, seventeen donors
T3 sequence (P20813 1-491): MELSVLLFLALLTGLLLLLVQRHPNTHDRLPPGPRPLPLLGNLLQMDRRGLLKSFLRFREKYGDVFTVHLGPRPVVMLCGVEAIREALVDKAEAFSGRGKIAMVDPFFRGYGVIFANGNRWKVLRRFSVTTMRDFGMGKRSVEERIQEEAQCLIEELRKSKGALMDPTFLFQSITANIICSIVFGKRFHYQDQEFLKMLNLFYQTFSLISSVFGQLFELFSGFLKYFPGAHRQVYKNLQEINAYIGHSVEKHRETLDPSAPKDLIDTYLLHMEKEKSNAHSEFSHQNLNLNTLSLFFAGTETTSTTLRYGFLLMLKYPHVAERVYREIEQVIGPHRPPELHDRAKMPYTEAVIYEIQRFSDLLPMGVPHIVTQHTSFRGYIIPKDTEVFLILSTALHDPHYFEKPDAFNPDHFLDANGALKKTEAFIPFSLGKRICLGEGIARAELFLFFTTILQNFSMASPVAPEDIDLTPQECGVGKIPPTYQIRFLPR
Briefly: Inhibition of CYP2B6 activity (EFC O-deethylation) in human liver microsomes. The settings on record: HLM, EFC 15 µmol·L^−1, preincubation 30 min at 37 °C, Mean ± S.D. As for the experimental part:
as §1, §2, §3

The IC50 is the concentration that gives 50% inhibition. Low readings indicate higher potency, high ones lower potency. For `CN(C)CCN(C)CCN(C)C.CN(C)CCN(C)CCN(C)C.O.O.O=C([O-])CCSSCCC(=O)[O-].[Cu+2].[Cu+2].[O-][Cl+3]([O-])([O-])[O-].[O-][Cl+3]([O-])([O-])[O-]` [Complex No. 6, [Cu2(μ-dtdp)(pmdien)2(H2O)2](ClO4)2], the figures for the IC50 against CYP1A2, on CYP2A6 and at CYP2B6 were 25.2 ± 0.29 µM, 25.13 ± 0.13 µM and 13.3 ± 0.54 µM, respectively.

Turning to `CN(C)CCN(C)CCN(C)C.CN(C)CCN(C)CCN(C)C.O.O.O=C([O-])/C=C/C(=O)[O-].[Cu+2].[Cu+2].[O-][Cl+3]([O-])([O-])[O-].[O-][Cl+3]([O-])([O-])[O-]` [Complex No. 5, [Cu2(μ-fu)(pmdien)2(H2O)2](ClO4)2], the IC50 turned out to be 24.97 ± 0.22 µM against CYP1A2, 24.9 ± 0.25 µM at CYP2A6 and 24.8 ± 0.33 µM against CYP2B6.
